# How the values were obtained:
# Type in all cases: in vivo
# [1] = system: ECHINOCHLOA CRUS-GALLI, (L) BEAU; experiment: Postemergence herbicidal evaluation, ECHCG (Barnyardgrass); parameters: key to ECHCG rating / Herbicidal effect rating, ECHCG / ECHCG: 0-9 visual rating scale vs untreated control
# In short: (§1)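 Each value is a 0–9 visual rating of plant appearance compared with control, recorded 4–5 weeks after a 0.125–0.500 kg/ha spray, with multiple tests averaged.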
# [2] = system: IPOMOEA SPP.; experiment: Postemergence herbicidal evaluation, IPOSS (Morningglory spp.)
# In short: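 In this greenhouse postemergence herbicide test on Ipomoea spp. (morningglory), compounds in 50/50 acetone/water with 0.5% TWEEN®20 were sprayed at 40 psi onto seedlings about two weeks old grown in jiffy flats. After four to five weeks, injury was scored on a 0-9 scale covering stand, vigor, malformation, size, chlorosis and overall appearance versus control, with repeat tests averaged.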
# [3] = system: CHENOPODIUM ALBUM, L.; experiment: Postemergence herbicidal evaluation, CHEAL (Lambsquarters, Common)
# In short: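 Postemergence herbicidal activity on Chenopodium album was tested by spraying two-week-old seedlings grown in jiffy flats with compound in acetone/water (50/50) plus 0.5% TWEEN®20, using a 40 psi nozzle. Four to five weeks after treatment, stand, vigor, malformation, size, chlorosis and overall appearance were scored 0-9 relative to controls, with repeat tests averaged.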
# [4] = system: ZEA MAYS L.; experiment: Postemergence herbicidal evaluation, ZEAMX (Corn, Field)
# In short: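 This greenhouse postemergence test treated corn plants about two weeks old. Compounds in a 50/50 acetone/water mixture with 0.5% TWEEN®20 were applied through a spray nozzle at 40 psi. After four to five weeks, injury was scored 0-9 against an untreated control, judging stand, vigor, malformation, size, chlorosis and overall appearance. Repeated tests were averaged.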
# [5] = system: TRITICUM AESTIVUM, CV. APOLLO; experiment: Postemergence herbicidal evaluation, TRZAWO (Wheat, Winter, CV. APOLLO)
# In short: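 This greenhouse postemergence test applied compounds to roughly two-week-old wheat seedlings grown in jiffy flats. The spray solution was 50/50 acetone/water with 0.5% TWEEN®20, a polyoxyethylene sorbitan monolaurate, sprayed from a nozzle run at 40 psi. After four to five weeks of standard greenhouse care, injury was scored from 0 to 9 by comparing stand, vigor, malformation, size, chlorosis and overall appearance with a control. Multiple tests were averaged.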
# [6] = system: ORYZA SATIVA, L. TEBONNET; experiment: Rice tolerance to post-transplant applications under flooded paddy conditions, ORYSAT (Rice, Tebonnet); details: for ORYSAT herbicidal rating (rice tolerance): post-transplant rice, rated three to four weeks after treatment; for ORYSAT: post-transplanted rice;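 on ORYSAT herbicidal rating (rice tolerance): applied to flooded soil surface three days after transplanting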
# In short: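 Greenhouse pots of silt loam, each with two transplanted ten-day-old seedlings, are held under 1.5 to 3 cm of standing water. Three days later the compound is applied to the flooded surface at about 0.5, 0.25, 0.125 or 0.063 kg/ha. Damage is scored visually 0-9 after 3-4 weeks.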
# [7] = system: AMBROSIA ARTEMISIIFOLIA, L.; experiment: Postemergence herbicidal evaluation, AMBEL (Ragweed, Common)
# In short: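 Postemergence herbicidal activity on AMBEL (common ragweed) was assessed on two-week-old seedlings grown in jiffy flats. Treatment solutions of 50/50 acetone/water with 0.5% TWEEN®20 surfactant were sprayed at 40 psi. After four to five weeks in the greenhouse, plants were scored 0-9 against a control for stand, vigor, malformation, size, chlorosis and overall appearance, with multiple tests averaged.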
# [8] = system: CASSIA OBTUSIFOLIA, L.; experiment: Postemergence herbicidal evaluation, CASOB (Sicklepod); parameters: key to CASOB rating / Herbicidal effect rating, CASOB / CASOB: 0-9 visual rating scale vs untreated control
# In short: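 Spray: acetone/water 50/50 + 0.5% TWEEN 20; rate ~0.125–0.500 kg/ha; nozzle 40 psi; ~2-wk seedlings. Read: visual 0–9 rating at 4–5 wk post-treatment vs control; replicate tests averaged.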
# [9] = system: SETARIA VIRIDIS, (L) BEAU; experiment: Postemergence herbicidal evaluation, SETVI (Foxtail, Green); parameters: key to SETVI rating / Herbicidal effect rating, SETVI / SETVI: 0-9 visual rating scale vs untreated control
# In short: as §1
# [10] = system: GALIUM APARINE; experiment: Postemergence herbicidal evaluation, GALAP (Galium); parameters: key to GALAP rating / Herbicidal effect rating, GALAP / GALAP: 0-9 visual rating scale vs untreated control
# In short: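 In this postemergence greenhouse test, two-week-old Galium aparine seedlings grown in jiffy flats received a 40 psi spray of compound in acetone/water (50/50) with 0.5% TWEEN®20 surfactant. After four to five weeks, stand, vigor, malformation, size, chlorosis and overall appearance were compared with untreated controls on a 0-9 scale, averaging multiple tests.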
# [11] = system: ABUTILON THEOPHRASTI, MEDIC.; experiment: Postemergence herbicidal evaluation, ABUTH (Velvetleaf)
# In short: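 This postemergence herbicide test used two-week-old velvetleaf seedlings grown in jiffy flats. Each compound was sprayed at 40 psi as a dispersion in 50/50 acetone/water with 0.5% TWEEN®20 surfactant. Plants then received routine greenhouse care. After four to five weeks, injury was scored visually on a 0-9 scale against a control, and replicate tests were averaged.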
structure (smiles),measurement,setting,value
"COC(=O)Cn1c(=O)n(C)c(=O)n(-c2cc(Oc3ccc(C(F)(F)F)cc3Cl)ccc2[N+](=O)[O-])c1=O [Compound 3, Methyl 3-{5-[(2-chloro-α,α,α-trifluoro-p-tolyl)oxy]-2-nitrophenyl}tetrahydro-5-methyl-2,4,6-trioxo-s-triazine-1(2H)-acetate]","Herbicidal effect rating, ECHCG",[1]; 0.031 kg/ha,4.3
same,"Herbicidal effect rating, ECHCG",[1]; 0.063 kg/ha,5.1
same,"Herbicidal effect rating, ECHCG",[1]; 0.125 kg/ha,6.7
same,"Herbicidal effect rating, ECHCG",[1]; 0.250 kg/ha,7.9
same,"Herbicidal effect rating, IPOSS",[2]; 0.031 kg/ha,7.6
same,"Herbicidal effect rating, IPOSS",[2]; 0.063 kg/ha,8.3
same,"Herbicidal effect rating, IPOSS",[2]; 0.125 kg/ha,8.9
same,"Herbicidal effect rating, IPOSS",[2]; 0.250 kg/ha,8.9
same,"Herbicidal effect rating, CHEAL",[3]; 0.031 kg/ha,5.1
same,"Herbicidal effect rating, CHEAL",[3]; 0.063 kg/ha,6.0
same,"Herbicidal effect rating, CHEAL",[3]; 0.125 kg/ha,7.2
same,"Herbicidal effect rating, CHEAL",[3]; 0.250 kg/ha,7.4
same,"Herbicidal effect rating, ZEAMX",[4]; 0.031 kg/ha,4.6
same,"Herbicidal effect rating, ZEAMX",[4]; 0.063 kg/ha,4.8
same,"Herbicidal effect rating, ZEAMX",[4]; 0.125 kg/ha,5.8
same,"Herbicidal effect rating, ZEAMX",[4]; 0.250 kg/ha,6.9
same,"Herbicidal effect rating, TRZAWO",[5]; 0.031 kg/ha,6.1
same,"Herbicidal effect rating, TRZAWO",[5]; 0.063 kg/ha,6.8
same,"Herbicidal effect rating, TRZAWO",[5]; 0.125 kg/ha,7.1
same,"Herbicidal effect rating, TRZAWO",[5]; 0.250 kg/ha,7.6
same,ORYSAT herbicidal rating (rice tolerance),[6]; Rate 0.063 kg/ha,2.7
same,ORYSAT herbicidal rating (rice tolerance),[6]; Rate 0.125 kg/ha,3.0
same,ORYSAT herbicidal rating (rice tolerance),[6]; Rate 0.250 kg/ha,3.8
same,ORYSAT herbicidal rating (rice tolerance),[6]; Rate 0.500 kg/ha,4.0
same,ORYSAT,[6]; Rate 0.031 kg/ha,1.0
same,ORYSAT,[6]; Rate 0.063 kg/ha,2.7
same,ORYSAT,[6]; Rate 0.125 kg/ha,3.0
same,ORYSAT,[6]; Rate 0.250 kg/ha,3.8
same,"Herbicidal effect rating, AMBEL",[7]; 0.031 kg/ha,8.3
same,"Herbicidal effect rating, AMBEL",[7]; 0.063 kg/ha,8.6
same,"Herbicidal effect rating, AMBEL",[7]; 0.125 kg/ha,8.8
same,"Herbicidal effect rating, AMBEL",[7]; 0.250 kg/ha,9.0
same,"Herbicidal effect rating, CASOB",[8]; 0.031 kg/ha,7.7
same,"Herbicidal effect rating, CASOB",[8]; 0.063 kg/ha,8.4
same,"Herbicidal effect rating, CASOB",[8]; 0.125 kg/ha,8.8
same,"Herbicidal effect rating, CASOB",[8]; 0.250 kg/ha,8.4
same,"Herbicidal effect rating, SETVI",[9]; 0.031 kg/ha,3.9
same,"Herbicidal effect rating, SETVI",[9]; 0.063 kg/ha,5.1
same,"Herbicidal effect rating, SETVI",[9]; 0.125 kg/ha,6.8
same,"Herbicidal effect rating, SETVI",[9]; 0.250 kg/ha,7.9
same,"Herbicidal effect rating, GALAP",[10]; 0.031 kg/ha,8.2
same,"Herbicidal effect rating, GALAP",[10]; 0.063 kg/ha,8.3
same,"Herbicidal effect rating, GALAP",[10]; 0.125 kg/ha,8.7
same,"Herbicidal effect rating, GALAP",[10]; 0.250 kg/ha,8.4
same,"Herbicidal effect rating, ABUTH",[11]; 0.031 kg/ha,7.3
same,"Herbicidal effect rating, ABUTH",[11]; 0.063 kg/ha,8.1
same,"Herbicidal effect rating, ABUTH",[11]; 0.125 kg/ha,8.8
same,"Herbicidal effect rating, ABUTH",[11]; 0.250 kg/ha,8.9

# Source: EP0745595A1, “3-(3-Aryloxyphenyl)-1-(substituted methyl)-s-triazine-2,4,6-oxo or thiotrione herbicidal agents” (American Cyanamid Company, priority 1995, dated 1996)
